Measurements published in the NIST ThermoML archive (doi:10.1016/j.jct.2016.03.009).
± gives the expanded uncertainty stated by the source.

Details: Crystal 2; DSC

[Ag+].[S-2].[S-2].[Sb+3] [antimony(III) silver(I) sulfide]
Triple point temperature: 648.6 ± 2.1 K
